Assay results taken from patent publication US7229997B2, “Compounds and their use” (Biovitrum AB, priority 2002, dated 2007).

These compounds were tested against T1, human 5-HT2c receptor (Homo sapiens, UniProt P28335) (assay: 5-HT2c receptor affinity assay (displacement of 3H-labelled 5-HT, Scintillation Proximity Assay)). Settings: not given.
T1 construct: expressed in transfected cells
T1 sequence (P28335 33-458): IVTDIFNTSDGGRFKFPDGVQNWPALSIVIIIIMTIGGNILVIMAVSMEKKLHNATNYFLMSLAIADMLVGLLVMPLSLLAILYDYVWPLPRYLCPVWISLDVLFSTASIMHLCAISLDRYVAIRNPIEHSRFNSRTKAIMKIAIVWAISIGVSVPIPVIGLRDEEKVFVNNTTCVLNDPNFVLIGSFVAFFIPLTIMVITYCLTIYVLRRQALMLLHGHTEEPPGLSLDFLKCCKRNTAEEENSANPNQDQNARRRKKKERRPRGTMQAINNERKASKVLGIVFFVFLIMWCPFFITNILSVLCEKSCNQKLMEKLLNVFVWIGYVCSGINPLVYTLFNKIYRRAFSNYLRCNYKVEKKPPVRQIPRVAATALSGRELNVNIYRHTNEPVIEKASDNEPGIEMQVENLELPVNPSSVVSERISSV
Format: binding
Experimental: The 5-HT2c receptor affinity of compounds in the Examples was determined in competition experiments, where the ability of each compound in serial dilution to displace ^3H-labelledlabeled 5-HT, bound to membranes prepared from a transfected HEK293 cell line stably expressing the human 5-HT2c receptor protein, was monitored by Scintillation Proximity Assay technology. Non-specific binding was defined using 5 μM mianserin.

Row | Structure (SMILES) | Ki
1 | COc1ccc(F)cc1COc1nc(N2CCNCC2)ccc1C(F)(F)F [Example 36, 1-[6-(5-Fluoro-2-methoxy-benzyloxy)-5-trifluoromethyl-pyridin-2-yl]-piperazine, acetate] | 5 nM
2 | CCSc1nc(N2CCNCC2)ccc1C(F)(F)F [Example 17, 1-(6-Ethylsulfanyl-5-trifluoromethyl-pyridin-2-yl)-piperazine, acetate] | 15 nM
3 | FC(F)(F)c1ccc(N2CCNCC2)nc1OCc1ccco1 [Example 25, 1-[6-(Furan-2-ylmethoxy)-5-trifluoromethyl-pyridin-2-yl]-piperazine, acetate] | 14 nM
4 | CCSc1nc(N2CCNC[C@H]2C)ccc1C(F)(F)F [Example 30, 1-(6-Ethylsulfanyl-5-trifluoromethyl-pyridin-2-yl)-2-(R)-methyl-piperazine, acetate] | 24 nM
5 | FC(F)(F)c1ccc(N2CCNCC2)nc1SCc1ccccc1Cl [Example 15, 1-[6-(2-Chloro-benzylsulfanyl)-5-trifluoromethyl-pyridin-2-yl]-piperazine, acetate] | 1 nM

Same assay, conditions: membranes from transfected HEK293 cells expressing human 5-HT2c receptor; 3H-5-HT radioligand; read-out: 5-HT2C receptor Affinity Ki

Row | Structure (SMILES) | Ki
6 | FC(F)(F)c1ccc(N2CCNCC2)nc1OCCOc1cccc2cccnc12 [Example 21, 8-[2-(6-Piperazin-1-yl-3-trifluoromethyl-pyridin-2-yloxy)-ethoxyl-quinoline, acetate] | 246 nM
7 | C[C@H]1CN(c2ccc(C(F)(F)F)c(SCc3ccccc3Cl)n2)CCN1 [Example 38, 1-[6-(2-Chloro-benzylsulfanyl)-5-trifluoromethyl-pyridin-2-yl]-3-(S)-methyl-piperazine, acetate] | 6 nM
